# Measurements as given in PubChem BioAssay (NCI).
#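 At the GI50, growth is halved. Definition used: TGI = concentration required for complete inhibition of growth.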
# Assays:
# Experiment in all cases: inhibition of tumour cell growth, NCI panel, 384-well format
# MDA-MB-435 melanoma = tested on: MDA-MB-435 melanoma
# SF-539 CNS = tested on: SF-539 CNS
# HOP-62 NSCLC = tested on: HOP-62 NSCLC
# LOX IMVI melanoma = tested on: LOX IMVI melanoma
# TK-10 renal = tested on: TK-10 renal
# DU-145 prostate = tested on: DU-145 prostate
# OVCAR-4 ovarian = tested on: OVCAR-4 ovarian
# SF-268 CNS = tested on: SF-268 CNS
# HL-60(TB) leukemia = tested on: HL-60(TB) leukemia
# SK-MEL-2 melanoma = tested on: SK-MEL-2 melanoma
# NCI/ADR-RES ovarian = tested on: NCI/ADR-RES ovarian
# EKVX NSCLC = tested on: EKVX NSCLC
# SNB-19 CNS = tested on: SNB-19 CNS
# OVCAR-3 ovarian = tested on: OVCAR-3 ovarian
# MDA-MB-468 breast = tested on: MDA-MB-468 breast
# SF-295 CNS = tested on: SF-295 CNS
# RXF 393 renal = tested on: RXF 393 renal
# HS 578T breast = tested on: HS 578T breast
# UACC-62 melanoma = tested on: UACC-62 melanoma
# HCT-116 colon = tested on: HCT-116 colon
# MALME-3M melanoma = tested on: MALME-3M melanoma
# SN12C renal = tested on: SN12C renal
# OVCAR-5 ovarian = tested on: OVCAR-5 ovarian
# A549 NSCLC = tested on: A549 NSCLC
# SK-MEL-5 melanoma = tested on: SK-MEL-5 melanoma
# SW-620 colon = tested on: SW-620 colon
# NCI-H522 lung = tested on: NCI-H522 lung
# MOLT-4 leukemia = tested on: MOLT-4 leukemia
# U251 glioblastoma = tested on: U251 glioblastoma
# HCC-2998 colon = tested on: HCC-2998 colon
# HT29 colon = tested on: HT29 colon
# MCF7 breast = tested on: MCF7 breast
# NCI-H460 NSCLC = tested on: NCI-H460 NSCLC
# RPMI-8226 leukemia = tested on: RPMI-8226 leukemia
# HOP-92 NSCLC = tested on: HOP-92 NSCLC
# CCRF-CEM leukemia = tested on: CCRF-CEM leukemia
# 786-0 renal = tested on: 786-0 renal
# NCI-H226 lung = tested on: NCI-H226 lung
# HCT-15 colon = tested on: HCT-15 colon
# SK-MEL-28 melanoma = tested on: SK-MEL-28 melanoma
# ACHN renal = tested on: ACHN renal
# K-562 leukemia = tested on: K-562 leukemia
# OVCAR-8 ovarian = tested on: OVCAR-8 ovarian
# COLO 205 colon = tested on: COLO 205 colon
# SNB-75 CNS = tested on: SNB-75 CNS
# UO-31 renal = tested on: UO-31 renal
# NCI-H322M lung = tested on: NCI-H322M lung
# UACC-257 melanoma = tested on: UACC-257 melanoma
# SK-OV-3 ovarian = tested on: SK-OV-3 ovarian
# T-47D breast = tested on: T-47D breast
# BT-549 breast = tested on: BT-549 breast
# IGROV1 ovarian = tested on: IGROV1 ovarian
# PC-3 prostate = tested on: PC-3 prostate
# SR leukemia = tested on: SR leukemia
# KM12 colon = tested on: KM12 colon
# MDA-MB-231 breast = tested on: MDA-MB-231 breast
# A498 renal = tested on: A498 renal
# CAKI-1 renal = tested on: CAKI-1 renal
smiles,measurement,setting,value
CCOc1cc(-c2nncn2C)ccc1Nc1ncc2cc(C)nc(NCC(C)(C)C)c2n1,GI50,MDA-MB-435 melanoma,> 100 µM
same,TGI,MDA-MB-435 melanoma,> 100 µM
same,GI50,SF-539 CNS,0.351 µM
same,TGI,SF-539 CNS,> 100 µM
same,GI50,HOP-62 NSCLC,0.23 µM
same,TGI,HOP-62 NSCLC,> 100 µM
same,GI50,LOX IMVI melanoma,0.179 µM
same,TGI,LOX IMVI melanoma,> 100 µM
same,GI50,TK-10 renal,3.89 µM
same,TGI,TK-10 renal,> 100 µM
same,GI50,DU-145 prostate,0.365 µM
same,TGI,DU-145 prostate,> 100 µM
same,GI50,OVCAR-4 ovarian,> 100 µM
same,TGI,OVCAR-4 ovarian,> 100 µM
same,GI50,SF-268 CNS,10.5 µM
same,TGI,SF-268 CNS,> 100 µM
same,GI50,HL-60(TB) leukemia,0.266 µM
same,TGI,HL-60(TB) leukemia,0.587 µM
same,GI50,SK-MEL-2 melanoma,> 100 µM
same,TGI,SK-MEL-2 melanoma,> 100 µM
same,GI50,NCI/ADR-RES ovarian,0.618 µM
same,TGI,NCI/ADR-RES ovarian,> 100 µM
same,GI50,EKVX NSCLC,2.05 µM
same,TGI,EKVX NSCLC,> 100 µM
same,GI50,SNB-19 CNS,86.7 µM
same,TGI,SNB-19 CNS,> 100 µM
same,GI50,OVCAR-3 ovarian,0.969 µM
same,TGI,OVCAR-3 ovarian,> 100 µM
same,GI50,MDA-MB-468 breast,0.578 µM
same,TGI,MDA-MB-468 breast,7.02 µM
same,GI50,SF-295 CNS,> 100 µM
same,TGI,SF-295 CNS,> 100 µM
same,GI50,RXF 393 renal,1.34 µM
same,TGI,RXF 393 renal,99.1 µM
same,GI50,HS 578T breast,0.188 µM
same,TGI,HS 578T breast,> 100 µM
same,GI50,UACC-62 melanoma,> 100 µM
same,TGI,UACC-62 melanoma,> 100 µM
same,GI50,HCT-116 colon,0.062 µM
same,TGI,HCT-116 colon,> 100 µM
same,GI50,MALME-3M melanoma,37.1 µM
same,TGI,MALME-3M melanoma,> 100 µM
same,GI50,SN12C renal,> 100 µM
same,TGI,SN12C renal,> 100 µM
same,GI50,OVCAR-5 ovarian,1.33 µM
same,TGI,OVCAR-5 ovarian,> 100 µM
same,GI50,A549 NSCLC,0.0992 µM
same,TGI,A549 NSCLC,> 100 µM
same,GI50,SK-MEL-5 melanoma,0.461 µM
same,TGI,SK-MEL-5 melanoma,> 100 µM
same,GI50,SW-620 colon,0.304 µM
same,TGI,SW-620 colon,> 100 µM
same,GI50,NCI-H522 lung,0.669 µM
same,TGI,NCI-H522 lung,> 100 µM
same,GI50,MOLT-4 leukemia,0.0223 µM
same,TGI,MOLT-4 leukemia,0.0463 µM
same,GI50,U251 glioblastoma,0.46 µM
same,TGI,U251 glioblastoma,> 100 µM
same,GI50,HCC-2998 colon,> 100 µM
same,TGI,HCC-2998 colon,> 100 µM
same,GI50,HT29 colon,> 100 µM
same,TGI,HT29 colon,> 100 µM
same,TGI,MCF7 breast,> 100 µM
same,GI50,NCI-H460 NSCLC,0.169 µM
same,TGI,NCI-H460 NSCLC,> 100 µM
same,GI50,RPMI-8226 leukemia,0.3 µM
same,TGI,RPMI-8226 leukemia,3.77 µM
same,GI50,HOP-92 NSCLC,> 100 µM
same,TGI,HOP-92 NSCLC,> 100 µM
same,GI50,CCRF-CEM leukemia,0.0772 µM
same,TGI,CCRF-CEM leukemia,0.278 µM
same,GI50,786-0 renal,0.468 µM
same,TGI,786-0 renal,> 100 µM
same,GI50,NCI-H226 lung,15.9 µM
same,TGI,NCI-H226 lung,> 100 µM
same,GI50,HCT-15 colon,0.0738 µM
same,TGI,HCT-15 colon,> 100 µM
same,GI50,SK-MEL-28 melanoma,> 100 µM
same,TGI,SK-MEL-28 melanoma,> 100 µM
same,GI50,ACHN renal,1.77 µM
same,TGI,ACHN renal,> 100 µM
same,GI50,K-562 leukemia,0.918 µM
same,TGI,K-562 leukemia,> 100 µM
same,GI50,OVCAR-8 ovarian,0.377 µM
same,TGI,OVCAR-8 ovarian,> 100 µM
same,GI50,COLO 205 colon,0.196 µM
same,TGI,COLO 205 colon,> 100 µM
same,GI50,SNB-75 CNS,> 100 µM
same,TGI,SNB-75 CNS,> 100 µM
same,GI50,UO-31 renal,0.514 µM
same,TGI,UO-31 renal,> 100 µM
same,GI50,NCI-H322M lung,> 100 µM
same,TGI,NCI-H322M lung,> 100 µM
same,GI50,UACC-257 melanoma,> 100 µM
same,TGI,UACC-257 melanoma,> 100 µM
same,GI50,SK-OV-3 ovarian,> 100 µM
same,TGI,SK-OV-3 ovarian,> 100 µM
same,GI50,T-47D breast,7.93 µM
same,TGI,T-47D breast,> 100 µM
same,GI50,BT-549 breast,0.85 µM
same,TGI,BT-549 breast,> 100 µM
same,GI50,IGROV1 ovarian,> 100 µM
same,TGI,IGROV1 ovarian,> 100 µM
same,GI50,PC-3 prostate,18 µM
same,TGI,PC-3 prostate,> 100 µM
same,GI50,SR leukemia,0.139 µM
same,TGI,SR leukemia,0.333 µM
same,GI50,KM12 colon,0.0967 µM
same,TGI,KM12 colon,> 100 µM
same,GI50,MDA-MB-231 breast,47.8 µM
same,TGI,MDA-MB-231 breast,> 100 µM
same,GI50,A498 renal,0.548 µM
same,TGI,A498 renal,> 100 µM
same,GI50,CAKI-1 renal,> 100 µM
same,TGI,CAKI-1 renal,> 100 µM
